For 24 compounds, inhibition results are on record in patent US8946438B2, “Benzamides, production thereof, and use thereof as medicaments” (Boehringer Ingelheim International GmbH, priority 2008, dated 2015).

SMILES strings stand for the structures.

p38 MAP-kinase, sequence (Q16539 whole entry): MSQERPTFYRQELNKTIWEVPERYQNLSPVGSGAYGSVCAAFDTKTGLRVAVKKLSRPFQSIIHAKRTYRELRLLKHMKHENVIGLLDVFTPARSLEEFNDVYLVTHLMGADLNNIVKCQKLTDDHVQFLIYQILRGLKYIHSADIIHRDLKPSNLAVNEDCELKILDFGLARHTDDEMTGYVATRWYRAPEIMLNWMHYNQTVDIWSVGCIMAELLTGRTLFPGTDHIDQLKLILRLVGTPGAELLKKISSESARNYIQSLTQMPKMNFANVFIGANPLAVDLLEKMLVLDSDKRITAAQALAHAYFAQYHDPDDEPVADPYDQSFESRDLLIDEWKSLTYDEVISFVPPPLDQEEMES

For this test, the target named is p38 MAP-kinase (Homo sapiens, UniProt Q16539). Put plainly: Enzymatic assay: inhibition of p38 MAP-kinase (phosphorylation of GST-tagged ATF2, chemoluminescence bead readout). Type of test: biochemical. The conditions noted are these: inhibitor 1 μM; activated p38 MAP-kinase 1 nM; 4 h preincubation; ATP 100 μM; ATF2 10 nM; read-out: % inhibitory effect at 1 μM. On the procedure: In this, the amount of a substrate phosphorylated by the kinase is quantified. The test is carried out as follows:
The kinase reaction is carried out in the presence of HEPES (20 mM, pH 7), MgCl2 (10 mM), DTT (1 mM) and TWEEN20 (0.01%). First, dimethylsulphoxide or inhibitor (final concentration: 1 μM) dissolved in dimethylsulphoxide are placed in a reaction vessel. Then the activated p38 MAP-kinase (final concentration 1 nM) is added and the mixture is incubated for 4 h at ambient temperature. Then a mixture of substrate (GST-tagged ATF2) and ATP is added and everything is incubated together for a further hour (final concentration ATP: 100 μM; final concentration ATF2: 10 nM).
The concentration of phosphorylated ATF2 is quantified by chemoluminescence-induced light emission. For this, a glutathione donor bead (final concentration: 5 μg/ml) which binds to the gluthathione on the ATF2 and phospho-ATF2 antibodies are added to the reaction mixture (final concentration: 3 nM; this binds the phosphate group added by the kinase reaction) to which a Protein A Acceptor Bead (final concentration: 5 μg/ml) binds. These components are dissolved in a buffer which contains 20 mM HEPES pH 7.0, 200 mM NaCL, 80 mM EDTA as well as 0.3% BSA. This reaction mixture is incubated in the dark for 1 hour at ambient temperature. When these beads come physically close, visible light is emitted which is measured in a photometer at 520-620 nm.
To determine the inhibitory activity of the compounds according to the invention a calculation is made to determine the percentage by which the kinase activity is inhibited at a fixed inhibitor concentration of 1 μM. The maximum activity is determined by non-inhibited kinase. The minimum activity or nonspecific background activity is determined using a reaction mixture without kinase. […] Table 2 summarises the degree of inhibition of the enzyme p38 MAP-kinase—as described hereinbefore—of the compounds according to the invention detailed in the section “Preparation of the final compounds”.
`COc1c(NC(=O)c2ccc(C)c(Oc3ccnc(CN4CCN(C)CC4)c3)c2)cc(C(C)(C)C)cc1NS(C)(=O)=O` [8(10), N-(5-tert-butyl-3-methanesulphonylamino-2-methoxy-phenyl)-4-methyl-3-[2-(4-methyl-piperazin-1-ylmethyl)-pyridin-4-yloxy]-benzamide]: the inhibition at 1 µM was found to be 98.9%. The figure for `COc1c(NC(=O)c2ccc(C)c(Oc3cc(NC4CCNCC4)ncn3)c2)cc(C(C)(C)C)cc1NS(C)(=O)=O` [5(17), N-(5-tert-butyl-3-methanesulphonylamino-2-methoxy-phenyl)-4-methyl-3-[6-(piperidin-4-ylamino)-pyrimidin-4-yloxy]-benzamide x trifluoroacetic acid] is 98.2%; for `COc1c(NC(=O)c2ccc(Cl)c(Oc3ccnc(N4CCNCC4)n3)c2)cc(C(C)(C)C)cc1NS(C)(=O)=O` [5(5), N-(5-tert-butyl-3-methanesulphonylamino-2-methoxy-phenyl)-4-chloro-3-(2-piperazin-1-yl-pyrimidin-4-yloxy)-benzamide] it is 98.3%. The figure for `COc1c(NC(=O)c2ccc(Cl)c(Oc3ccnc(CC4CCNCC4)n3)c2)cc(C(C)(C)C)cc1NS(C)(=O)=O` [5(30), N-(5-tert-butyl-3-methanesulphonylamino-2-methoxy-phenyl)-4-chloro-3-(2-piperidin-4-ylmethyl-pyrimidin-4-yloxy)-benzamide] is 99%. The figure for `COc1c(NC(=O)c2ccc(C)c(Oc3ccnc(CN4CCNCC4)n3)c2)cc(C(C)(C)C)cc1NS(C)(=O)=O` [5(6), N-(5-tert-butyl-3-methanesulphonylamino-2-methoxy-phenyl)-4-methyl-3-(2-piperazin-1-ylmethyl-pyrimidin-4-yloxy)-benzamide] is 98.3%; for `COc1c(NC(=O)c2ccc(Cl)c(Oc3ccnc(NC4CCN(C)CC4)c3)c2)cc(C(C)(C)C)cc1NS(C)(=O)=O` [Example 10, N-(5-tert-butyl-3-methanesulphonylamino-2-methoxy-phenyl)-4-chloro-3-[2-(1-methyl-piperidin-4-ylamino)-pyridin-4-yloxy]-benzamide] it is 99.6%. For `COc1c(NC(=O)c2ccc(C)c(Oc3ccnc(N(C)C4CCN(C)C4)n3)c2)cc(C(C)(C)C)cc1NS(C)(=O)=O` (stereo not drawn) [4(19), N-(5-tert-butyl-3-methanesulphonylamino-2-methoxy-phenyl)-4-methyl-3-{2-[methyl-(1-methyl-pyrrolidin-3-yl)-amino]-pyrimidin-4-yloxy}-benzamide], the inhibition at 1 µM was 98.6%.

Consider `CCCCS(=O)(=O)Nc1cc(C(C)(C)C)cc(NC(=O)c2ccc(C)c(Oc3ccnc(CC4CCNCC4)c3)c2)c1OC` [11(1), N-[3-(butan-1-sulphonylamino)-5-tert-butyl-2-methoxy-phenyl]-4-methyl-3-(2-piperidin-4-ylmethyl-pyridin-4-yloxy)-benzamide], for which the inhibition at 1 µM was 99.4%. `COc1c(NC(=O)c2ccc(C)c(Oc3cc(CN4CCNCC4)ncn3)c2)cc(C(C)(C)C)cc1NS(C)(=O)=O` [5(7), N-(5-tert-butyl-3-methanesulphonylamino-2-methoxy-phenyl)-4-methyl-3-(6-piperazin-1-ylmethyl-pyrimidin-4-yloxy)-benzamide]: the inhibition at 1 µM was found to be 97.8%. The figure for `COc1c(NC(=O)c2ccc(C)c(Oc3ccnc(CNC4CCN(C)C4)n3)c2)cc(C(C)(C)C)cc1NS(C)(=O)=O` (stereo not drawn) [8(23), N-(5-tert-butyl-3-methanesulphonylamino-2-methoxy-phenyl)-4-methyl-3-{2-[(1-methyl-pyrrolidin-3-ylamino)-methyl]-pyrimidin-4-yloxy}-benzamide] is 97.8%; for `COc1c(CS(C)(=O)=O)cc(C(C)(C)C)cc1NC(=O)c1ccc(C)c(Oc2ccnc(CC3CCNCC3)c2)c1` [5(41), N-(5-tert-butyl-3-methanesulphonylmethyl-2-methoxy-phenyl)-4-methyl-3-(2-piperidin-4-ylmethyl-pyridin-4-yloxy)-benzamide] it is 99.6%; for `COc1c(NC(=O)c2ccc(C)c(Oc3ccnc(CN4CCNC(=O)C4)n3)c2)cc(C(C)(C)C)cc1NS(C)(=O)=O` [8(5), N-(5-tert-butyl-3-methanesulphonylamino-2-methoxy-phenyl)-4-methyl-3-[2-(3-oxo-piperazin-1-ylmethyl)-pyrimidin-4-yloxy]-benzamide] it is 95.8%. Take `COc1c(NC(=O)c2ccc(C)c(Oc3cc(N4CCOCC4)ncn3)c2)cc(C(C)(C)C)cc1NS(C)(=O)=O` [4(5), N-(5-tert-butyl-3-methanesulphonylamino-2-methoxy-phenyl)-4-methyl-3-(6-morpholin-4-yl-pyrimidin-4-yloxy)-benzamide]: the inhibition at 1 µM came out at 97.4%.

Consider `COc1c(NC(=O)c2ccc(C)c(Oc3ccnc(N4CCC(N(C)C)CC4)n3)c2)cc(C(C)(C)C)cc1NS(C)(=O)=O` [4(8), N-(5-tert-butyl-3-methanesulphonylamino-2-methoxy-phenyl)-3-[2-(4-dimethylamino-piperidin-1-yl)-pyrimidin-4-yloxy]-4-methyl-benzamide], for which the inhibition at 1 µM was 98.6%. For `COc1c(NC(=O)c2ccc(C)c(Oc3ccnc(CC4CCNCC4)c3)c2)cc(C(C)(C)C)cc1NC(=O)C1CC1` [5(43), N-[5-tert-butyl-3-(cyclopropanecarbonyl-amino)-2-methoxy-phenyl]-4-methyl-3-(2-piperidin-4-ylmethyl-pyridin-4-yloxy)-benzamide], the inhibition at 1 µM is 98.6%.

On to `COc1c(NC(=O)c2ccc(Cl)c(Oc3cc(CN4CCNCC4)ncn3)c2)cc(C(C)(C)C)cc1NS(C)(=O)=O` [5(32), N-(5-tert-butyl-3-methanesulphonylamino-2-methoxy-phenyl)-4-chloro-3-(6-piperazin-1-ylmethyl-pyrimidin-4-yloxy)-benzamide], for which the inhibition at 1 µM turned out to be 97.9%. The figure for `COc1c(NC(=O)c2ccc(Cl)c(Oc3ccnc(CN4CCCN(C)CC4)n3)c2)cc(C(C)(C)C)cc1NS(C)(=O)=O` [8(35), N-(5-tert-butyl-3-methanesulphonylamino-2-methoxy-phenyl)-4-chloro-3-[2-(4-methyl-[1,4]diazepan-1-ylmethyl)-pyrimidin-4-yloxy]-benzamide] is 98.6%; for `COc1c(NC(=O)c2ccc(Cl)c(Oc3ccnc(CC4CCNCC4)c3)c2)cc(C(C)(C)C)cc1NS(C)(=O)=O` [5(29), N-(5-tert-butyl-3-methanesulphonylamino-2-methoxy-phenyl)-4-chloro-3-(2-piperidin-4-ylmethyl-pyridin-4-yloxy)-benzamide] it is 99%. As to `COc1c(NC(=O)c2ccc(C)c(Oc3ccnc(CNC4CCCN(C)C4)n3)c2)cc(C(C)(C)C)cc1NS(C)(=O)=O` (stereo not drawn) [8(18), N-(5-tert-butyl-3-methanesulphonylamino-2-methoxy-phenyl)-4-methyl-3-{2-[(1-methyl-piperidin-3-ylamino)-methyl]-pyrimidin-4-yloxy}-benzamide], the inhibition at 1 µM came to 98.6%. The figure for `COc1c(NC(=O)c2ccc(C)c(Oc3cc(N4CCCC4)ncn3)c2)cc(C(C)(C)C)cc1NS(C)(=O)=O` [4(4), N-(5-tert-butyl-3-methanesulphonylamino-2-methoxy-phenyl)-4-methyl-3-(6-pyrrolidin-1-yl-pyrimidin-4-yloxy)-benzamide] is 97.5%; for `COc1c(NC(=O)c2ccc(Cl)c(Oc3cc(CN4CCCNCC4)ncn3)c2)cc(C(C)(C)C)cc1NS(C)(=O)=O` [5(36), N-(5-tert-butyl-3-methanesulphonylamino-2-methoxy-phenyl)-4-chloro-3-(6-[1,4]diazepan-1-ylmethyl-pyrimidin-4-yloxy)-benzamide] it is 99.3%; for `COc1c(NC(=O)c2ccc(C)c(Oc3ccnc(CC4CCNCC4)c3)c2)cc(C(C)(C)C)cc1NS(=O)(=O)CC(C)C` [5(46), N-[5-tert-butyl-2-methoxy-3-(2-methyl-propane-1-sulphonylamino)-phenyl]-4-methyl-3-(2-piperidin-4-ylmethyl-pyridin-4-yloxy)-benzamide] it is 99.6%. The figure for `COc1c(NC(=O)c2ccc(Cl)c(Oc3cc(CNCCN(C)C)ncn3)c2)cc(C(C)(C)C)cc1NS(C)(=O)=O` [8(31), N-(5-tert-butyl-3-methanesulphonylamino-2-methoxy-phenyl)-4-chloro-3-{6-[(2-dimethylamino-ethylamino)-methyl]-pyrimidin-4-yloxy}-benzamide] is 86.5%; for `COc1c(NC(=O)c2ccc(Cl)c(Oc3ccnc(CNCCN(C)C)c3)c2)cc(C(C)(C)C)cc1NS(C)(=O)=O` [8(34), N-(5-tert-butyl-3-methanesulphonylamino-2-methoxy-phenyl)-4-chloro-3-{2-[(2-dimethylamino-ethylamino)-methyl]-pyridin-4-yloxy}-benzamide] it is 99.3%.
